Entries after “also recorded” stand apart in the source; their conditions may differ. Where a SMILES comes first, the peptide text is derived from it. The star is where a group is joined. Cbz = O=C(OCc1ccccc1)*
Test system: N-acyl-L-proline acylase
Assay: Substrate specificity: hydrolysis of N-acyl amino acids and proline derivatives
Type: biochemical, Comamonas testosteroni DSM 5416
Conditions: for Relative Activity (%): proline derivatives; for Relative Activity (%) / Rel. activity (%): 30° C., pH 7.0, N-acetyl-L-proline = 100%; for Rel. activity (%): 20 mM substrate 1.0 ml in 2.0 ml batch, amino-acid analyzer
Experimental: The activity of acylase was determined with various N-acetyl-L-amino acids and N-chloroacetyl-L-amino acids in a reaction batch with the following composition:
The reaction temperature was 30° C. and the incubation time 15 minutes to 24 hours. 0.2 ml samples of the reaction batch in each instance were mixed at different times with 0.2 ml 10% (w/v) trichloroacetic acid and the denatured protein centrifuged off for 10 minutes at 11,000 rpms in a table centrifuge. The supernatant was diluted with a 0.1M Na citrate buffer pH 2.2 with 25% (v/v) 2.2-thiodiethanol and 0.1% (v/v) phenol 1:5 and 1:50 respectively. The amino acids released were quantitatively detected by an amino-acid analyzer LC 5001 of the firm Biotronic, Maintal, Federal Republic of Germany. In Table 16, the substrates marked with * and the corresponding products were quantified by means of HPLC.
The activity of the acylase was determined with various proline derivatives as under a).

Compound | Relative Activity (%) | Hydrolysis by the acylase (in words) | Hydrolysis rate, times more rapid than N-acetyl-L-proline | Rel. activity (%)
O=C(O)CNC(=O)[C@@H]1CCCN1 [H--L--Pro--Gly--OH] (H-Pro-Gly-OH) | 0 |  |  | 
NC(=O)[C@@H]1CCCN1 [H--L--Pro--NH2] | 0 |  |  | 
CC(=O)N1CC(O)C[C@H]1C(=O)O (stereo partly drawn) [N-acetyl-L-4-hydroxyproline] | 10 | hydrolyzes |  | 
COC(=O)[C@@H]1CCCN1C(C)=O [N-acetyl-L-proline methyl ester] | 0 | not hydrolyzed |  | 
CC(=O)N1CCC[C@H]1C(N)=O [N-acetyl-L-prolineamide] | 0 | not hydrolyzed |  | 
O=C(NCC(=O)N1CCC[C@H]1C(=O)O)OCc1ccccc1 [N-benzyloxycarbonyl-glycyl-L-proline] (Cbz-Gly-Pro-OH) | 11 | hydrolyzes |  | 
CCCC(=O)N1CCC[C@H]1C(=O)O [N-butyryl-L-proline] | 14 | hydrolyzes |  | 
CCCCCC(=O)N1CCC[C@H]1C(=O)O [N-caproyl-L-proline] | 9 | hydrolyzes |  | 
O=C(O)[C@@H]1CCCCN1C(=O)CCl [N-chloroacetyl-L-pipecolic acid] |  | hydrolyzes |  | 
O=C(O)[C@@H]1CCCN1C(=O)CCl [N-chloroacetyl-L-proline] | 362 | hydrolyzes; also recorded: hydrolyzed especially well | about 3.6 times | 362
O=C(O)[C@@H]1SCCN1C(=O)CCl [N-chloroacetyl-L-thiazolidine-2-carboxylic acid] |  | hydrolyzes |  | 
O=C(O)[C@@H]1CSCN1C(=O)CCl [N-chloroacetyl-L-thiazolidine-4-carboxylic acid] |  | hydrolyzes; also recorded: hydrolyzed especially well |  | 462
O=CN1CCC[C@H]1C(=O)O [N-formyl-L-proline] | 18 | hydrolyzes |  | 
CCC(=O)N1CCC[C@H]1C(=O)O [N-propionyl-L-proline] | 29 | hydrolyzes |  | 
CCCCC(=O)N1CCC[C@H]1C(=O)O [N-valeryl-L-proline] | 15 | hydrolyzes |  | 
O=C(O)[C@H]1CCCN1C(=O)OCc1ccccc1 [Z--D--Pro--OH] | 0 |  |  | 
C[C@H](NC(=O)[C@@H]1CCCN1C(=O)OCc1ccccc1)C(=O)O [Z--L--Pro--L--Ala--OH] (Cbz-Pro-Ala-OH) | 0 |  |  | 
NC(=O)[C@@H]1CCCN1C(=O)OCc1ccccc1 [Z--L--Pro--NH2] | 0 |  |  | 
O=C(O)[C@@H]1CCCN1C(=O)OCc1ccccc1 [Z--L--Pro--OH] | 0 |  |  | 
NCC(=O)N1CCC[C@H]1C(=O)O [glycyl-L-proline] (H-Gly-Pro-OH) | 4 | hydrolyzes |  | 

Source: patent US5219741A, “Method of making L-proline using an N-acyl-L-protine acylase” (priority 1990, dated 1993)
